Measurements from patent US20150148256A1, “BIOLUMINESCENCE IMAGING-BASED SCREENING ASSAY AND INHIBITORS OF ABCG2” (THE JOHNS HOPKINS UNIVERSITY, priority 2008, published 2015).
Structures can show the parent of a compound that is named as a salt. Where two headings read alike, the source gives them in different places.

Assays:
ABCG2 = target: T1, ABCG2 (Homo sapiens, UniProt Q9UNQ0); assay: Bioluminescence imaging (BLI) assay in HEK293/ABCG2/fLuc cells
T1 sequence (Q9UNQ0 1-655): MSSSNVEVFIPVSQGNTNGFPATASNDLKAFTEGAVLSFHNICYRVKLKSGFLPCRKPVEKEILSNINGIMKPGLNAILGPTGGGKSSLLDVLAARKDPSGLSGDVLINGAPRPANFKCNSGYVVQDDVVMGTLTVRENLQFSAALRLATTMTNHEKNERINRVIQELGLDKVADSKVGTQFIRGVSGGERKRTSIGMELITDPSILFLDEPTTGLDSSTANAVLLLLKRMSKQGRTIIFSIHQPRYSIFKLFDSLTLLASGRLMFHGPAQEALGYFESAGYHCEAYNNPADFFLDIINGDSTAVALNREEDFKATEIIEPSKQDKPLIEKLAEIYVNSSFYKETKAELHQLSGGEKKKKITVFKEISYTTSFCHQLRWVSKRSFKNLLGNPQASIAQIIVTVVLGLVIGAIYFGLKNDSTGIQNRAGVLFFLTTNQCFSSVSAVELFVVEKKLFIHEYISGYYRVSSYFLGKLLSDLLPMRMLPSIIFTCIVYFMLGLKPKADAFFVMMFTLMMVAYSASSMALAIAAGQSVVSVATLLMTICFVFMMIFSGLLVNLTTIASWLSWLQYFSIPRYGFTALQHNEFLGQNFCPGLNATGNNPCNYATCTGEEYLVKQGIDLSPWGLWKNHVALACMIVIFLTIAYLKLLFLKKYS
In short: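 Light output from HEK293/ABCG2/fLuc cells plated at 4×10^4 per well, treated with compounds, imaged every 5 min for ~1 h. Values are signal-to-background ratios versus solvent control at 40 min, indicating ABCG2 inhibition. Dose range 0.001 μM-100 μM with 50 μg/mL D-luciferin for selected compounds.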

[1] = tested on: ABCG2-overexpressing NCI-H460/MX20 cells; conditions: for MTX (mitoxantrone resensitization assay): H460/MX20 cells with MTX
[2] = compound 1 μM with 15 μM MTX, two days

CCCCNc1c(C(=O)OCC)c(C)nc2c1cnn2CC [tracazolate]
Fold (BLI enhancement), previously unknown compounds (ABCG2; human, 40 min, 17 μM): 20 fold | Fold (BLI enhancement, S/B ratio over control) (ABCG2; human, 40 min, 17 μM): 20.0 fold | MTX (mitoxantrone resensitization assay) [1]: Y

CC(C)C(=O)Nc1ccc([N+](=O)[O-])c(C(F)(F)F)c1 [flutamide]
Fold (BLI enhancement), previously unknown compounds (ABCG2; human, 40 min, 17 μM): 6.1 fold | Fold (BLI enhancement, S/B ratio over control) (ABCG2; human, 40 min, 17 μM): 6.1 fold | MTX (mitoxantrone resensitization assay) [1]: Y

CCN(CC)CCOc1ccc(C(=C(Cl)c2ccccc2)c2ccccc2)cc1 [clomiphene citrate]
Fold (BLI enhancement), previously unknown compounds (ABCG2; human, 40 min, 17 μM): 6.7 fold | Fold (BLI enhancement, S/B ratio over control) (ABCG2; human, 40 min, 17 μM): 6.7 fold | resensitization of H460/MX20 cells to MTX [1, 2]: showed resensitization of H460/MX20 cells to MTX

Cc1cc2nc3c(=O)[nH]c(=O)nc-3n(C[C@H](O)[C@H](O)[C@H](O)CO)c2cc1C [riboflavin]
Fold (BLI enhancement), known compounds (ABCG2; human, 40 min, 17 μM): 5.4 fold | Fold (BLI enhancement, S/B ratio over control) (ABCG2; human, 40 min, 17 μM): 5.4 fold | MTX (mitoxantrone resensitization assay) [1]: Y

C[C@H]1O[C@@H](O[C@H]2[C@@H](O)C[C@H](O[C@H]3[C@@H](O)C[C@H](O[C@H]4CC[C@@]5(C)[C@H](CC[C@@H]6[C@@H]5CC[C@]5(C)[C@@H](C7=CC(=O)OC7)CC[C@]65O)C4)O[C@@H]3C)O[C@@H]2C)C[C@H](O)[C@@H]1O [digitoxin]
BLI signal enhancement at lower concentrations (ABCG2): enhance BLI signal minimally | Fold (BLI enhancement), previously unknown compounds (ABCG2; human): 5.7 fold | Fold (BLI enhancement, S/B ratio over control) (ABCG2; human): 5.7 fold | reduction of survival rate of H460/MX20 cells [1]: did not reduce the survival rate of H460/MX20 cells significantly

gramicidin
Fold (BLI enhancement, S/B ratio over control) (ABCG2; Table 2, HEK293/ABCG2/fLuc cells, compound approximately 17 μM, ~50 μg/mL D-luciferin, 40 min time point): 6.9 fold | Fold (BLI enhancement), previously unknown compounds (ABCG2; Table 4, approximately 17 μM, 40 min time point): 6.9 fold | resensitization of H460/MX20 cells to MTX [1, 2]: showed resensitization of H460/MX20 cells to MTX | cytotoxicity in the MTX resensitization assay ([1]; compound 20 μM, H460/MX20 cells): too cytotoxic to be tested

O=C(c1ccc(OCCN2CCCCC2)cc1)c1c(-c2ccc(O)cc2)sc2cc(O)ccc12 [raloxifene hydrochloride]
Fold (BLI enhancement), previously unknown compounds (ABCG2; human, 40 min, 17 μM): 5.4 fold | Fold (BLI enhancement, S/B ratio over control) (ABCG2; human, 40 min, 17 μM): 5.4 fold | MTX (mitoxantrone resensitization assay) [1]: Y

CC(=O)c1ccc2c(c1)N(CCCN(C)C)c1ccccc1S2 [acepromazine]
Fold (BLI enhancement), previously unknown compounds (ABCG2; human, 40 min, 17 μM): 6.2 fold | Fold (BLI enhancement, S/B ratio over control) (ABCG2; human, 40 min, 17 μM): 6.2 fold | MTX (mitoxantrone resensitization assay) [1]: Y

CCCCCCCCCCCCOCCOCCOCCOCCO [brij, Brij 30]
resensitization of H460/MX20 cells to MTX ([1]; after two days of incubation (data not shown)): resensitize H460/MX20 cells to MTX significantly

acetophenazine maleate
MTX (mitoxantrone resensitization assay) [1]: Y

Cc1ccc(C(=O)C(C)CN2CCCCC2)cc1 (stereo not drawn) [tolperisone hydrochloride]
Fold (BLI enhancement, S/B ratio over control) (ABCG2; human, 40 min, 17 μM): 2.1 fold

Cc1c(O)cccc1C(=O)N[C@@H](CSc1ccccc1)[C@H](O)CN1C[C@H]2CCCC[C@H]2C[C@H]1C(=O)NC(C)(C)C [nelfinavir mesylate]
Fold (BLI enhancement), known compounds (ABCG2; human, 40 min, 17 μM): 6.1 fold | Fold (BLI enhancement, S/B ratio over control) (ABCG2; human, 40 min, 17 μM): 6.1 fold

CCOC(=O)C1=C(C)NC(C)=C(C(=O)OC)C1c1cccc(Cl)c1Cl (stereo not drawn) [felodipine]
Fold (BLI enhancement, S/B ratio over control) (ABCG2; human, 40 min, 17 μM): 3.0 fold

CN1C2CCCC1CC(NC(=O)c1nn(C)c3ccccc13)C2 (stereo not drawn) [granisetron hydrochloride]
Fold (BLI enhancement, S/B ratio over control) (ABCG2; human, 40 min, 17 μM): 2.2 fold

CCCc1nn(C)c2c(=O)[nH]c(-c3cc(S(=O)(=O)N4CCN(C)CC4)ccc3OCC)nc12 [sildenafil]
Fold (BLI enhancement), previously unknown compounds (ABCG2; human, 40 min, 17 μM): 6.6 fold | Fold (BLI enhancement, S/B ratio over control) (ABCG2; human, 40 min, 17 μM): 6.6 fold

Fc1ccc(C(c2ccc(F)cc2)N2CCN(C/C=C/c3ccccc3)CC2)cc1 [flunarizine hydrochloride]
Fold (BLI enhancement, S/B ratio over control) (ABCG2; human, 40 min, 17 μM): 2.9 fold
